Experimental findings from patent publication US8524917B2, “6-substituted indole-3-carboxylic acid amide compounds having sphingosine-1-phosphate (S1P) receptor antagonist biological activity” (Allergan, Inc., priority 2007, dated 2013) are described below.

What is called IC50 is the concentration that inhibits the measured activity by half.

Like-named read-outs stand apart in the source and are kept apart here.

This experiment deals with human S1P3 receptor (Homo sapiens (Human), UniProt Q99500). As to the kind of experiment: Activation or block of activation of human S1P3 receptor, Ca+2 FLIPR assay. The class given is cell-based. The following applies: for IC50: read-out: S1P3 IC50. As to the method: Compounds were assessed for their ability to activate or block activation of the human S1P3 receptor in T24 cells stably expressing the human S1P3 receptor. Ten thousand cells/well were plated into 384-well poly-D-lysine coated plates one day prior to use. The growth media for the S1P3 receptor expressing cell line was McCoy's 5A medium supplemented with 10% charcoal-treated fetal bovine serum (FBS), 1% antibiotic-antimycotic and 400 μg/ml geneticin. On the day of the experiment, the cells were washed twice with Hank's Balanced Salt Solution supplemented with 20 mM HEPES (HBSS/Hepes buffer). […] Extracellular dye was removed by washing the cell plates four times prior to placing the plates in the FLIPR (Fluorometric Imaging Plate Reader, Molecular Devices). Ligands were diluted in HBSS/Hepes buffer and prepared in 384-well microplates. The positive control, Sphingosine-1-Phosphate (S1P), was diluted in HBSS/Hepes buffer with 4 mg/ml fatty acid free bovine serum albumin. The FLIPR transferred 12.5 μl from the ligand microplate to the cell plate and took fluorescent measurements for 75 seconds, taking readings every second, and then for 2.5 minutes, taking readings every 10 seconds. […] IC50 values were determined through a […] analysis using the Levenburg Marquardt algorithm.
Sequence of human S1P3 receptor (Q99500 whole entry): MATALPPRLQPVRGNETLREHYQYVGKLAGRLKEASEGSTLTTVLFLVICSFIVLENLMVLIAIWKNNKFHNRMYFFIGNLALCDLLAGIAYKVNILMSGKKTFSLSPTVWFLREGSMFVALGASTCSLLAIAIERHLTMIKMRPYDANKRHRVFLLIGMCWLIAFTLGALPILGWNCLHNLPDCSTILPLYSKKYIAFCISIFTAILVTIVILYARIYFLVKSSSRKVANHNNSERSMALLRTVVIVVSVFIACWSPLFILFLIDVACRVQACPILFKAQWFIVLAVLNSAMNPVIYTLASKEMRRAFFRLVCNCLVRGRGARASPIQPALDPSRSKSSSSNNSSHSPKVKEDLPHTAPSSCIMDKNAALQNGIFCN

The mark [1] stands for this setting: T24 cells stably expressing the human S1P3 receptor, FLIPR Ca+2 response, 0.61 nM to 10,000 nM.
Setting [2] is: T24 cells stably expressing the human S1P3 receptor, value in brackets.

As for `CC(C)c1c(C(=O)NCc2ccc(F)c(F)c2)c2ccc(OC3CCOC3)cc2n1Cc1ccccc1` (stereo not drawn) [Compound 19, 1-Benzyl-N-(3,4-difluorobenzyl)-2-isopropyl-6-(tetrahydrofuran-3-yloxy)-1H-indole-3-carboxamide], the half-maximal inhibitory concentration (IC50) under setting [1] came out at 6 nM. Further, the “S1P3 (% inh)” value under setting [2] turned out to be 100%.
The matching figures for `CC(C)c1c(C(=O)NCc2ccc(F)c(F)c2)c2ccc(OC3CCOC3=O)cc2n1Cc1ccccc1` (stereo not drawn) [Compound 20, 1-Benzyl-N-(3,4-difluorobenzyl)-2-isopropyl-6-(2-oxotetrahydrofuran-3-yloxy)-1H-indole-3-carboxamide]: 81 nM and 100%.
The corresponding values for `CC(C)c1c(C(=O)NCc2ccc(F)c(F)c2)c2ccc(OC(=O)N(C)C)cc2n1Cc1ccccc1` [Compound 21, 1-benzyl-3-(3,4-difluorobenzylcarbamoyl)-2-isopropyl-1H-indol-6-yl Dimethylcarbamate] are 24 nM and 99%.
In the case of `CC(C)c1c(C(=O)NCc2ccc(F)c(F)c2)c2ccc(OC(=O)C(C)(C)C)cc2n1Cc1ccccc1` [Compound 22, 1-Benzyl-3-(3,4-difluorobenzylcarbamoyl)-2-isopropyl-1H-indol-6-yl Pivalate], the “S1P3 (% inh)” value is 4 nM (99) % and the IC50 was found to be 4 nM.
The corresponding values for `CC(=O)Oc1ccc2c(C(=O)NCc3ccc(F)c(F)c3)c(C(C)C)n(Cc3ccccc3)c2c1` [Compound 23, 1-Benzyl-3-(3,4-difluorobenzylcarbamoyl)-2-isopropyl-1H-indol-6-yl Acetate] are 14 nM (100) % and 14 nM.
Consider `CCC(=O)Oc1ccc2c(C(=O)NCc3ccc(F)c(F)c3)c(C(C)C)n(Cc3ccccc3)c2c1` [Compound 24, 1-Benzyl-3-(3,4-difluorobenzylcarbamoyl)-2-isopropyl-1H-indol-6-yl Propionate], for which the “S1P3 (% inh)” value is 20 nM (100) % and the IC50 turned out to be 20 nM.
The corresponding values for `CC(C)C(=O)Oc1ccc2c(C(=O)NCc3ccc(F)c(F)c3)c(C(C)C)n(Cc3ccccc3)c2c1` [Compound 25, 1-Benzyl-3-(3,4-difluorobenzylcarbamoyl)-2-isopropyl-1H-indol-6-yl Isobutyrate] are 14 nM (100) % and 14 nM.
As to `COCOc1ccc2c(C(=O)NCc3ccc(F)c(F)c3)c(C(C)C)n(Cc3ccccc3)c2c1` [Compound 26, 1-Benzyl-N-(3,4-difluorobenzyl)-2-isopropyl-6-(methoxymethoxy)-1H-indole-3-carboxamide], the Kb turned out to be 13 nM, the “S1P3 (% inh)” value was 39 nM (100) 13 nM % and the IC50 worked out at 39 nM.
As for `CC(C)c1c(C(=O)NCc2ccc(F)c(F)c2)c2ccc(OC3CCCO3)cc2n1Cc1ccccc1` (stereo not drawn) [Compound 27, 1-Benzyl-N-(3,4-difluorobenzyl)-2-isopropyl-6-(tetrahydrofuran-2-yloxy)-1H-indole-3-carboxamide], the Kb was 11 nM, the “S1P3 (% inh)” value is recorded as 6 nM (100) 11 nM % and the IC50 amounted to 6 nM.
For the molecule `CCOC(=O)c1ccc2c(C(=O)NCc3ccc(F)c(F)c3)c(C(C)C)n(Cc3ccccc3)c2c1` [Compound 43, Ethyl 1-Benzyl-3-(3,4-difluorobenzylcarbamoyl)-2-isopropyl-1H-indole-6-carboxylate], the IC50 under setting [1] is 7 nM. The Kb (T24 cells stably expressing the human S1P3 receptor, second concentration in the cell, read-out: S1P3 Kb) came to 8 nM. Besides, the “S1P3 (% inh)” value under setting [2] is listed as 100%.
Regarding `CCOC(=O)c1ccc2c(C(=O)NCc3cncc(F)c3)c(C(C)C)n(Cc3ccccc3)c2c1` [Compound 44, Ethyl 1-Benzyl-3-((5-fluoropyridin-3-yl)methylcarbamoyl)-2-isopropyl-1H-indole-6-carboxylate], the “S1P3 (% inh)” value is 24 nM (100) % and the IC50 is 24 nM.
In the case of `CCOC(=O)c1ccc2c(C(=O)NCc3ccc(F)c(F)c3)c(C(C)C)n(Cc3cccnc3)c2c1` [Compound 46, Ethyl 3-(3,4-Difluorobenzylcarbamoyl)-2-isopropyl-1-(pyridin-3-ylmethyl)-1H-indole-6-carboxylate], the “S1P3 (% inh)” value is reported as 241 nM (100) % and the IC50 was determined as 241 nM.
